# Measurements from PMC10799935, “Discovery of a peripheral 5HT2A antagonist as a clinical candidate for metabolic dysfunction-associated steatohepatitis” (Nature Communications, 2024).
# Read-outs that look alike come from different tables or passages of the source.
# Tests used:
# [1] = male SD rats, oral [^14C]-11c 5 mg/kg
# Experimental: Following blood collection, each anesthetized animal was euthanized by CO2 inhalation and carcasses were submerged in a dry ice/hexane bath. Frozen carcasses were stored at approximately -20 °C until processed for QWBA. Duplicate aliquots of approximately 0.1 g whole blood were weighed into combustion boats for analysis by LSC. Duplicate aliquots of approximately 0.1 mL plasma were weighed into scintillation vials and mixed with an appropriate volume of scintillation cocktail for analysis by LSC. The frozen carcasses were individually set in a mold, submerged in 5% (w/v) low viscosity carboxymethylcellulose (CMC), and embedded by placing the stage (mold) in a dry ice/hexane bath. […] Sagittal, 30-µm thick sections of the CMC-embedded carcasses, including QC standards, and of the CMC-embedded calibration standards were sectioned using a Vibratome 9800 Cryomicrotome (Vibratome; St. Louis, MO) with the temperature maintained at approximately -20 °C. […] The IPs were exposed for approximately 4 days while stored at room temperature in a lead-shielded box to minimize background radiation. Digitized phosphor images (autoradioluminograms) were generated in a dark room with subdued lighting using a GE Healthcare Typhoon 7000 Phosphor Imager (Raytest GmbH; Berlin, Germany) and analyzed using AIDA software (Raytest GmbH).
# [2] = in vitro; conditions: rat, plasma
# [3] = test system: HFD-fed C57BL/6J mice; test: DIO mice: intraperitoneal glucose tolerance test (IPGTT); type: in vivo, mouse; design: Mean Diff. (Vehicle vs. 11c), GTT blood glucose / Mean 2 (11c group), GTT blood glucose: unit not given here; conditions: 5mpk; for Mean Diff. (Vehicle vs. 11c), GTT blood glucose: Dunnett's multiple comparisons test; for Significant? (Vehicle vs. 11c), GTT blood glucose: Dunnett's test, alpha 0.05; for Mean 2 (11c group), GTT blood glucose: test details, mixed-effects model
# Experimental: For the glucose tolerance test, overnight fasted mice were intraperitoneally injected with 2 g/kg D-glucose (Sigma-Aldrich). Glucose concentrations were measured using a Gluco DR. TOP glucometer (Allmedicus). The AUC (area under the curve) during the GTT was calculated using GraphPad Prism 8.0 software (La Jolla, CA, USA) by the trapezoidal method.
smiles,measurement,setting,value
Cc1nc2n(c(=O)c1CCN1CCC(=C3c4ccc(Cl)cc4CCc4cccnc43)CC1)CCCC2O (stereo not drawn) [Compound 11c],AUC0-t (ng equiv./g),[1]; Adrenal gland,7210 ng equiv./g
same,Cmax (ng equiv./g),[1]; Adrenal gland,1510 ng equiv./g
same,Tissue: plasma ratio based on AUC0-t,[1]; Adrenal gland,9.21
same,Tmax,[1]; Adrenal gland,6 h
same,Cmax (ng equiv./g),"[1]; Brain, BQL = below the lower limit of quantitation 148 ng equiv./g",BQL
same,Cmax (ng equiv./g),"[1]; Brain, BQL = below the lower limit of quantitation 148 ng equiv./g, listed as [^14C]-compound 11c",below the lower limit of quantitation
same,AUC0-t (ng equiv./g),[1]; Heart,1800 ng equiv./g
same,Cmax (ng equiv./g),[1]; Heart,369 ng equiv./g
same,Tissue: plasma ratio based on AUC0-t,[1]; Heart,2.30
same,Tmax,[1]; Heart,6 h
same,AUC0-t (ng equiv./g),[1]; Kidney,7860 ng equiv./g
same,Cmax (ng equiv./g),[1]; Kidney,1840 ng equiv./g
same,Tissue: plasma ratio based on AUC0-t,[1]; Kidney,10.0
same,Tmax,[1]; Kidney,6 h
same,AUC0-t (ng equiv./g),[1]; Large Intestine,127000 ng equiv./g
same,Cmax (ng equiv./g),[1]; Large Intestine,9800 ng equiv./g
same,Tissue: plasma ratio based on AUC0-t,[1]; Large Intestine,162
same,Tmax,[1]; Large Intestine,6 h
same,AUC0-t (ng equiv./g),[1]; Liver,15400 ng equiv./g
same,Cmax (ng equiv./g),[1]; Liver,2920 ng equiv./g
same,Tissue: plasma ratio based on AUC0-t,[1]; Liver,19.7
same,Tmax,[1]; Liver,6 h
same,AUC0-t (ng equiv./g),[1]; Lung,4290 ng equiv./g
same,Cmax (ng equiv./g),[1]; Lung,941 ng equiv./g
same,Tissue: plasma ratio based on AUC0-t,[1]; Lung,5.48
same,Tmax,[1]; Lung,6 h
same,AUC0-t (ng equiv./g),[1]; Pancreas,15400 ng equiv./g
same,Cmax (ng equiv./g),[1]; Pancreas,4330 ng equiv./g
same,Tissue: plasma ratio based on AUC0-t,[1]; Pancreas,19.7
same,Tmax,[1]; Pancreas,6 h
same,AUC0-t (ng equiv./g),[1]; Plasma,783 ng equiv./g
same,Cmax (ng equiv./g),[1]; Plasma,225 ng equiv./g
same,Tissue: plasma ratio based on AUC0-t,[1]; Plasma,1.00
same,Tmax,[1]; Plasma,0.5 h
same,AUC0-t (ng equiv./g),[1]; Small Intestine,16600 ng equiv./g
same,Cmax (ng equiv./g),[1]; Small Intestine,45000 ng equiv./g
same,Tissue: plasma ratio based on AUC0-t,[1]; Small Intestine,21.2
same,Tmax,[1]; Small Intestine,0.25 h
same,AUC0-t (ng equiv./g),[1]; Spleen,9520 ng equiv./g
same,Cmax (ng equiv./g),[1]; Spleen,2290 ng equiv./g
same,Tissue: plasma ratio based on AUC0-t,[1]; Spleen,12.2
same,Tmax,[1]; Spleen,6 h
same,AUC0-t (ng equiv./g),[1]; Stomach,5130 ng equiv./g
same,Cmax (ng equiv./g),[1]; Stomach,3240 ng equiv./g
same,Tissue: plasma ratio based on AUC0-t,[1]; Stomach,6.55
same,Tmax,[1]; Stomach,0.25 h
same,AUC0-t (ng equiv./g),[1]; Whole Blood,589 ng equiv./g
same,Cmax (ng equiv./g),[1]; Whole Blood,158 ng equiv./g
same,Tissue: plasma ratio based on AUC0-t,[1]; Whole Blood,0.75
same,Tmax,[1]; Whole Blood,0.5 h
same,remaining at 4 h,[2],> 99.9%
same,"Mean Diff. (Vehicle vs. 11c), GTT blood glucose",[3]; 0 min,17.89
same,"Significant? (Vehicle vs. 11c), GTT blood glucose",[3]; 0 min,No
same,"Mean 2 (11c group), GTT blood glucose",[3]; 0 min,206.4
same,"Mean Diff. (Vehicle vs. 11c), GTT blood glucose",[3]; 15 min,-1.429
same,"Significant? (Vehicle vs. 11c), GTT blood glucose",[3]; 15 min,No
same,"Mean 2 (11c group), GTT blood glucose",[3]; 15 min,542.4
